{
  "source": "ChEMBL document CHEMBL5120923",
  "about": "“Tamarixetin Attenuated the Virulence of Staphylococcus aureus by Directly Targeting Caseinolytic Protease P” (J Nat Prod, 2022)",
  "key": {"[1]": {"system": "Staphylococcus aureus", "assay": "Inhibition of methicillin-resistant Staphylococcus aureus USA300 ClpP using Suc-LY-AMC as fluorescent substrate at 64 ug/ml preincubated for 1 hr followed by substrate addition and measured after 1 hr by FRET assay relative to control", "conditions": "dose 64.0 µg/ml, time 2.0 hrs"}, "[2]": {"assay": "Inhibition of methicillin-resistant Staphylococcus aureus USA300 ClpP using Suc-LY-AMC as fluorescent substrate preincubated for 1 hr followed by substrate addition and measured after 1 hr by FRET assay"}, "[3]": {"system": "Staphylococcus aureus", "assay": "Antibacterial activity against methicillin-resistant Staphylococcus aureus USA300 incubated for 24 hrs by microdilution broth assay", "assay_type": "functional"}, "[4]": {"system": "A549", "assay": "Cytotoxicity against human A549 cells at 64 ug/ml by MTT assay", "assay_type": "toxicity, cell-based", "conditions": "dose 64 µg/ml"}, "[5]": {"system": "HepG2", "assay": "Cytotoxicity against human HepG2 cells at 64 ug/ml by MTT assay", "assay_type": "toxicity, cell-based", "conditions": "dose 64 µg/ml"}, "[6]": {"system": "HEK-293T", "assay": "Cytotoxicity against human HEK-293T cells at 64 ug/ml by MTT assay", "assay_type": "toxicity, cell-based", "conditions": "dose 64 µg/ml"}, "[7]": {"system": "Staphylococcus aureus", "assay": "Inhibition of hla gene transcription level in methicillin-resistant Staphylococcus aureus USA300 at 64 ug/ml by qPCR analysis", "assay_type": "functional", "conditions": "dose 64.0 µg/ml"}, "[8]": {"system": "Staphylococcus aureus", "assay": "Inhibition of agr gene transcription level in methicillin-resistant Staphylococcus aureus USA300 at 64 ug/ml by qPCR analysis", "assay_type": "functional", "conditions": "dose 64.0 µg/ml"}, "[9]": {"system": "Staphylococcus aureus", "assay": "Inhibition of RNAIII gene transcription level in methicillin-resistant Staphylococcus aureus USA300 at 64 ug/ml by qPCR analysis", "assay_type": "functional", "conditions": "dose 64.0 µg/ml"}, "[10]": {"system": "Staphylococcus aureus", "assay": "Inhibition of pvl gene transcription level in methicillin-resistant Staphylococcus aureus USA300 at 64 ug/ml by qPCR analysis", "assay_type": "functional", "conditions": "dose 64.0 µg/ml"}, "[11]": {"system": "Staphylococcus aureus", "assay": "Inhibition of PSM-alpha gene transcription level in methicillin-resistant Staphylococcus aureus USA300 at 64 ug/ml by qPCR analysis", "assay_type": "functional", "conditions": "dose 64.0 µg/ml"}, "[12]": {"system": "Staphylococcus aureus", "assay": "Inhibition of spa gene transcription level in methicillin-resistant Staphylococcus aureus USA300 at 64 ug/ml by qPCR analysis", "assay_type": "functional", "conditions": "dose 64.0 µg/ml"}, "[13]": {"assay": "Inhibition of agrA gene transcription level in methicillin-resistant Staphylococcus aureus USA300 at 64 ug/ml by qPCR analysis", "assay_type": "functional"}, "[14]": {"system": "Staphylococcus aureus", "assay": "Antibacterial activity against methicillin-resistant Staphylococcus aureus USA300 assessed as inhibition of bacteria-mediated hemolytic activity on rabbit erythrocytes at 128 ug/ml incubated for 30 mins by hemolysis assay", "assay_type": "functional", "conditions": "USA300, 0.5 h"}, "[15]": {"system": "Staphylococcus aureus", "assay": "Antibacterial activity against methicillin-resistant Staphylococcus aureus USA300 harboring ClpP delta mutant assessed as inhibition of bacteria-mediated hemolytic activity on rabbit erythrocytes at 128 ug/ml incubated for 30 mins by hemolysis assay", "assay_type": "functional", "conditions": "USA300, 0.5 h"}, "[16]": {"system": "Staphylococcus aureus", "assay": "Inhibition of PVL protein expression in methicillin-resistant Staphylococcus aureus USA300 incubated for overnight by western blot analysis", "assay_type": "functional", "conditions": "DDE = dose-dependent effect"}, "[17]": {"system": "Staphylococcus aureus", "assay": "Inhibition of PVL protein expression in methicillin-resistant Staphylococcus aureus Newman incubated for overnight by western blot analysis", "assay_type": "functional", "conditions": "DDE = dose-dependent effect"}, "[18]": {"system": "Staphylococcus aureus", "assay": "Binding affinity to methicillin-resistant Staphylococcus aureus USA300 ClpP assessed as decrease in thermal stability of the protein at 16 to 64 ug/ml by SYPRO orange thermal shift assay", "conditions": "dose 16-64 µg/ml"}, "[19]": {"system": "Staphylococcus aureus", "assay": "Binding affinity to methicillin-resistant Staphylococcus aureus USA300 ClpP assessed as change in thermal stability by measuring protein deposition at 64 ug/ml by measured after 1 hr by cellular thermal shift assay (reference value: 65 degC)", "conditions": "dose 64.0 µg/ml"}, "[20]": {"system": "Staphylococcus aureus", "assay": "Binding affinity to methicillin-resistant Staphylococcus aureus USA300 ClpP assessed as association rate constant by surface plasmon resonance assay"}, "[21]": {"system": "Staphylococcus aureus", "assay": "Binding affinity to methicillin-resistant Staphylococcus aureus USA300 ClpP assessed as dissociation rate constant by surface plasmon resonance assay"}, "[22]": {"assay": "Binding affinity to methicillin-resistant Staphylococcus aureus USA300 ClpP assessed as dissociation constant by surface plasmon resonance assay"}, "[23]": {"system": "Staphylococcus aureus", "assay": "Antibacterial activity against methicillin-resistant Staphylococcus aureus USA300 harboring delta ClpP mutant infected in C57BL/6J mouse pneumonia model assessed as reduction in mortality rate at 50 mg/Kg, sc administered every 12 hrs measured after 72 hrs (Rvb =80%)", "assay_type": "functional", "parameters": "scale not given: the % may be the effect or the level left"}, "[24]": {"system": "Staphylococcus aureus", "assay": "Antibacterial activity against methicillin-resistant Staphylococcus aureus USA300 infected in C57BL/6J mouse pneumonia model assessed as reduction in bacterial load in lung at 100 mg/Kg, sc administered every 12 hrs measured after 48 hrs in presence of cefotaxime (reference value: 10.04+/- 0.56 log10CFU/g)", "assay_type": "functional"}, "[25]": {"system": "Staphylococcus aureus", "assay": "Antibacterial activity against methicillin-resistant Staphylococcus aureus USA300 infected in C57BL/6J mouse pneumonia model assessed as reduction in infiltration of inflammatory cells in alveoli at 100 mg/Kg, sc administered every 12 hrs measured after 48 hrs by hematoxylin and eosin staining based histopathological analysis", "assay_type": "functional, organism-based"}, "[26]": {"system": "Staphylococcus aureus", "assay": "Antibacterial activity against methicillin-resistant Staphylococcus aureus USA300 harboring delta ClpP mutant infected in C57BL/6J mouse pneumonia model assessed as reduction in infiltration of inflammatory cells in alveoli at 100 mg/Kg, sc administered every 12 hrs measured after 48 hrs by hematoxylin and eosin staining based histopathological analysis", "assay_type": "functional, organism-based"}, "[27]": {"system": "Staphylococcus aureus", "assay": "Antibacterial activity against methicillin-resistant Staphylococcus aureus USA300 infected in C57BL/6J mouse pneumonia model assessed as reduction in IFN-gamma level in lung at 100 mg/Kg, sc administered every 12 hrs measured after 48 hrs by ELISA", "assay_type": "functional, organism-based"}, "[28]": {"system": "Staphylococcus aureus", "assay": "Antibacterial activity against methicillin-resistant Staphylococcus aureus USA300 infected in C57BL/6J mouse pneumonia model assessed as reduction in IL-6 level in lung at 100 mg/Kg, sc administered every 12 hrs measured after 48 hrs by ELISA", "assay_type": "functional, organism-based"}, "[29]": {"system": "Staphylococcus aureus", "assay": "Antibacterial activity against methicillin-resistant Staphylococcus aureus USA300 infected in C57BL/6J mouse pneumonia model assessed as reduction in TNF-alpha level in lung at 100 mg/Kg, sc administered every 12 hrs measured after 48 hrs by ELISA", "assay_type": "functional, organism-based"}, "[30]": {"system": "Staphylococcus aureus", "assay": "Synergistic antibacterial activity against methicillin-resistant Staphylococcus aureus USA300 infected in C57BL/6J mouse pneumonia model assessed as lethality at 50 mg/Kg, sc administered every 12 hrs measured after 72 hrs in presence of cefotaxime (Rvb =40%)", "assay_type": "functional"}, "[31]": {"system": "Staphylococcus aureus", "assay": "Synergistic antibacterial activity against methicillin-resistant Staphylococcus aureus USA300 infected in C57BL/6J mouse pneumonia model assessed as reduction in bacterial load in lung at 100 mg/Kg, sc administered every 12 hrs measured after 48 hrs in presence of cefotaxime (reference value: 7.72 +/- 0.50 log10CFU/g)", "assay_type": "functional"}, "[32]": {"system": "Staphylococcus aureus", "assay": "Synergistic antibacterial activity against methicillin-resistant Staphylococcus aureus USA300 infected in C57BL/6J mouse pneumonia model assessed as reduction in infiltration of inflammatory cells in alveoli at 100 mg/Kg, sc administered every 12 hrs measured after 48 hrs in presence of cefotaxime by hematoxylin and eosin staining based histopathological analysis", "assay_type": "functional, organism-based"}, "[33]": {"system": "Staphylococcus aureus", "assay": "Synergistic antibacterial activity against methicillin-resistant Staphylococcus aureus USA300 assessed as cefotaxime MIC by checker board method", "assay_type": "functional"}, "[34]": {"system": "Staphylococcus aureus", "assay": "Synergistic […] activity against Cmethicillin-resistant Staphylococcus aureus USA300 assessed as fractional inhibitory concentration index at 64 ug/ml in presence of cefotaxime by checker board method", "assay_type": "functional", "conditions": "dose 64 µg/ml"}, "[35]": {"system": "Staphylococcus aureus", "assay": "Inhibition of methicillin-resistant Staphylococcus aureus USA300 ClpP assessed as upregulation of urease production at 64 ug/ml incubated for 4 hr by spectrophotometry", "conditions": "dose 64.0 µg/ml"}},
  "note": "Active and inactive are the calls of the source. The calls are words filed in the database; no cut-off is given here.",
  "data": [
    {"compound": "COc1ccc(-c2oc3cc(O)cc(O)c3c(=O)c2O)cc1O", "note": "[TAMARIXETIN]", "values": [
      {"measurement": "inhibition", "setting": "[1]", "value": 2.5, "unit": "%"},
      {"measurement": "IC50", "setting": "[2]", "value": 49.7, "unit": "µM"},
      {"measurement": "MIC", "setting": "[3]", "value": 512, "unit": "µg/mL"},
      {"measurement": "Activity", "setting": "[4]", "value": "Non-Toxic"},
      {"measurement": "Activity", "setting": "[5]", "value": "Non-Toxic"},
      {"measurement": "Activity", "setting": "[6]", "value": "Non-Toxic"},
      {"measurement": "inhibition", "setting": "[7]", "value": "Active"},
      {"measurement": "inhibition", "setting": "[8]", "value": "Active"},
      {"measurement": "inhibition", "setting": "[9]", "value": "Active"},
      {"measurement": "inhibition", "setting": "[10]", "value": "Active"},
      {"measurement": "inhibition", "setting": "[11]", "value": "Active"},
      {"measurement": "inhibition", "setting": "[12]", "value": "Active"},
      {"measurement": "inhibition at 64 µg/mL", "setting": "[13]", "value": 83.9, "unit": "%"},
      {"measurement": "inhibition at 128 µg/mL", "setting": "[14]", "value": "> 55", "unit": "%"},
      {"measurement": "inhibition at 128 µg/mL", "setting": "[15]", "value": 85.8, "unit": "%"},
      {"measurement": "inhibition", "setting": "[16]", "value": "Dde"},
      {"measurement": "inhibition", "setting": "[17]", "value": "Dde"},
      {"measurement": "ΔTm", "setting": "[18]", "value": "> 2", "unit": "°C"},
      {"measurement": "Activity", "setting": "[19]", "value": "Active"},
      {"measurement": "Ka", "setting": "[20]", "value": "1.69 10^3/M/s"},
      {"measurement": "Kdiss", "setting": "[21]", "value": "4.26 10^-3/s"},
      {"measurement": "Kd", "setting": "[22]", "value": 2.52, "unit": "µM"},
      {"measurement": "Activity", "setting": "[23]", "value": 70, "unit": "%"},
      {"measurement": "Activity", "setting": "[24]", "value": 7.03, "unit": "log10CFU/g"},
      {"measurement": "Activity", "setting": "[25]", "value": "Active"},
      {"measurement": "Activity", "setting": "[26]", "value": "Active"},
      {"measurement": "Activity", "setting": "[27]", "value": "Active"},
      {"measurement": "Activity", "setting": "[28]", "value": "Active"},
      {"measurement": "Activity", "setting": "[29]", "value": "Active"},
      {"measurement": "Activity", "setting": "[30]", "value": 20, "unit": "%"},
      {"measurement": "Activity", "setting": "[31]", "value": 7.03, "unit": "log10CFU/g"},
      {"measurement": "Activity", "setting": "[32]", "value": "Active"},
      {"measurement": "MIC", "setting": "[33]", "value": 16, "unit": "µg/mL"},
      {"measurement": "fractional inhibitory concentration index (FICI)", "setting": "[34]", "value": 0.375},
      {"measurement": "inhibition", "setting": "[35]", "value": "Active"}
    ]}
  ]
}
